Data set [1] in a line: physical stability of amorphous material under stress conditions (temperature, relative humidity). In kind it is physicochemical. As to conditions: 100° C. for 4 days.
Data set [2] can be described thus: Dynamic Vapor Sorption (DVS): hygroscopicity and sorption properties. The data set is classed as physicochemical. The conditions noted are these: for hygroscopicity classification: 25° C., European Pharmacopeia classification where stated. Here is the method:
Dynamic Vapor Sorption (DVS) was performed using a Hiden Analytical Instruments IGAsorp Vapor Sorption Balance. Approximately 30 mg of sample was placed into a wire-mesh Vapor sorption balance pan, loaded into the IGAsorp Vapor sorption balance and held at 25° C.±0.1° C. The sample was subjected to a step profile from 0 to 90% RH at 10% increments, followed by desorption from 80% RH to 0% RH at 10% increments. The equilibrium criterion was set to 99.0% step completion within a minimum of […] and a maximum of 5 hours for each increment. The weight change during the sorption cycle was monitored, allowing for the hygroscopic nature of the sample to be determined. The data collection interval was in seconds.

Data set [3] in a line: permeability (BCS classification) in initial development experiments. In kind it is in vitro ADME. As to conditions: free base.
Data set [4] can be described thus: BCS classification / solubility in initial development experiments. In kind it is physicochemical. The conditions noted are these: free base; in water.

Turning to `COc1cc2nccc(Oc3ccc(NC(=O)C4(C(=O)Nc5ccc(F)cc5)CC4)cc3)c2cc1OC` [Compound 1 Amorphous Form, N-{4-[(6,7-dimethoxyquinolin-4-yl)oxy]phenyl}-N′-(4-fluorophenyl) cyclopropane-1,1-dicarboxamide], the “physical stability to heat stressing” value in data set [1] was “stable”. Besides, in data set [2] (DVS), the “water uptake at 90% RH” value is “approximately 5%” and the hygroscopicity classification result is “hygroscopic”. Further, the “total weight gain between 0% RH and 80% RH” value in data set [2] (DVS, sample dried at 0% RH first) is on record as 4 % w/w. The “crystallization by XRPD of the sample post DVS” value in data set [2] (after the DVS cycle) is “no crystallization had occurred”.
Consider `COc1cc2nccc(Oc3ccc(NC(=O)C4(C(=O)Nc5ccc(F)cc5)CC4)cc3)c2cc1OC` [Compound 1 Form I, N-{4-[(6,7-dimethoxyquinolin-4-yl)oxy]phenyl}-N′-(4-fluorophenyl) cyclopropane-1,1-dicarboxamide], for which, in data set [2] (DVS), the “weight gain between 40% RH and 90% RH” value is on record as “very small weight gain”; the hygroscopicity classification result is listed as “non-hygroscopic”. Also, the “stability at higher humidity” value in data set [2] (DVS, 40% RH to 90% RH) was “stable”.
`COc1cc2nccc(Oc3ccc(NC(=O)C4(C(=O)Nc5ccc(F)cc5)CC4)cc3)c2cc1OC` [Compound 1 Form III, N-{4-[(6,7-dimethoxyquinolin-4-yl)oxy]phenyl}-N′-(4-fluorophenyl) cyclopropane-1,1-dicarboxamide]: in data set [2] (DVS), the “weight gain between 0% RH and 80% RH (in words)” value is “very small weight gain”; the hygroscopicity classification entry was “non-hygroscopic”.
In the case of `COc1cc2nccc(Oc3ccc(NC(=O)C4(C(=O)Nc5ccc(F)cc5)CC4)cc3)c2cc1OC` [Compound 1 Form XXVIII, N-{4-[(6,7-dimethoxyquinolin-4-yl)oxy]phenyl}-N′-(4-fluorophenyl) cyclopropane-1,1-dicarboxamide], in data set [2] (DVS), the “weight gain between 0% RH and 80% RH (in words)” value is “very small weight gain”; the hygroscopicity classification result is on record as “non-hygroscopic”.
With `COc1cc2nccc(Oc3ccc(NC(=O)C4(C(=O)Nc5ccc(F)cc5)CC4)cc3)c2cc1OC` [Compound 1 Form XXX, N-{4-[(6,7-dimethoxyquinolin-4-yl)oxy]phenyl}-N′-(4-fluorophenyl) cyclopropane-1,1-dicarboxamide], in data set [2] (DVS), the hygroscopicity classification result is on record as “hygroscopic”.
Consider `COc1cc2nccc(Oc3ccc(NC(=O)C4(C(=O)Nc5ccc(F)cc5)CC4)cc3)c2cc1OC` [Compound 1 Form XXXI, N-{4-[(6,7-dimethoxyquinolin-4-yl)oxy]phenyl}-N′-(4-fluorophenyl) cyclopropane-1,1-dicarboxamide], for which the “weight lost on drying to 0% RH” value in data set [2] (DVS, sample dried at 0% RH before sorption and desorption) is on record as −7%.
For the compound `COc1cc2nccc(Oc3ccc(NC(=O)C4(C(=O)Nc5ccc(F)cc5)CC4)cc3)c2cc1OC` [Compound 1, N-{4-[(6,7-dimethoxyquinolin-4-yl)oxy]phenyl}-N′-(4-fluorophenyl) cyclopropane-1,1-dicarboxamide], the permeability entry in data set [3] is on record as “high permeability”. In addition, the solubility entry in data set [4] is recorded as “low solubility”.
